pEC50, pIC50: −log10 of the molar value. Where two headings read alike, the source gives them in different places.
Assays:
DoHH2 = experiment: CellTiter-Glo proliferation/viability assay; type: cell-based, human; details: Homo sapiens, DOHH-2
Ramos = experiment: CellTiter-Glo proliferation/viability assay; type: cell-based, human; details: Homo sapiens, Ramos, read-out: Ramos EC50
[1] = system: PLCγ2 phosphorylation in Ramos cells; experiment: PLCγ2 phosphorylation by flow cytometry; type: cell-based, human; details: Homo sapiens, 0.3 uM, flow cytometry, anti-phospho PLCγ2 (Tyr759), read-out: pPLCγ % inhibition
Description: Ramos cells were cultured in RPMI 1640 media with 10% FBS and were starved overnight (18 h) in 1% FBS containing media and on the next day pretreated with inhibitor for 2 h before stimulation. Cells were stimulated to induce BTK network dependent signal transduction pathways using mouse anti-human IgM (final concentration 10 ug/ml; Invitrogen) antibodies and 3.3 mM H2O2 mixture for 2 minutes followed by F(Ab) fragment that cross-linked the anti-IgM antibody (final concentration 10 ug/ml), and 3.3 mM H2O2 for 8 minutes. Cell lysates were prepared in lysis buffer containing protease and phosphatase inhibitors, quantified using the BCA protein assay kit (Pierce) and used for Western blotting. Antibodies specifically targeted to the molecules of interest, PLCγ2 phosphorylated at Tyr1217 and total PLCγ2, (Cell Signaling Technology) were used in a standard Western blotting procedure.
PLCγ2 phosphorylation was also assessed by flow cytometry. Cells were similarly stimulated and following stimulation, Cytofix buffer (Becton Dickinson) was added, cells were centrifuged and the cell pellets incubated on ice with Phosflow perm buffer III (Becton Dickinson). These cell pellets were washed with Perm/Wash buffer (Becton Dickinson); resuspended and labeled for flow cytometry analysis in a staining mixture containing Perm/Wash buffer and PE-labeled anti-phosphoPCLγa2 (Tyr1217) antibody (Becton Dickinson). The samples were washed with Perm/Wash buffer and analyzed on a FACS Calibur flow cytometer using CellQuest Pro software. As mentioned for the Western blot experiments, phosphorylation of PLCγ2 at Tyr1217 along with Tyr753, Tyr759 and Tyr1197 is correlated with increased PLCγ2 activity. The readout for BTK network signaling was inhibition of phosphorylation of PLCγ2. Cells were gated to exclude dead or dying cells. Fluorescence signals from the antibody staining were plotted in logarithmic units and data was analyzed using Cellquest Pro software. […] An ED50 was calculated based on the geometric mean of fluorescence intensity observed for treatment for four different concentrations of the inhibitors (see Table 7 and FIG. 6). […] Thus treatment with amino naphthyridinones inhibits PLCγ2 phosphorylation consistent with inhibition of BTK and/or LYN activity.
Following stimulation, cells were prepared for analysis by flow cytometry as described above. In short, cells were fixed and permeabilized using Cytofix buffer, Phosflow perm buffer and Perm/Wash buffer (Becton Dickinson). The cells were stained with PE-labeled anti-phosphoPCLγ2 (Tyr759) antibody (Becton Dickinson) and analyzed on a FACS Calibur flow cytometer using CellQuest Pro software. […] Thus aminonaphthyridinones are useful for the indirect inhibition of PLCγ2 phosphorylation.

[2] = system: phosphorylation of SFKs in Ramos cells; experiment: SFK phosphorylation (Tyr 416) by flow cytometry; type: cell-based, human; details: Homo sapiens, 0.3 uM, flow cytometry, SFK phosphorylated at Tyr 416, read-out: pSRC % inhibition
Description: Ramos cell lysates from stimulated and unstimulated cells were analyzed for the levels of phosphorylated SRC family members. As described in Example 82 (above), cells were pretreated for 2 hours with an amino naphthyridinones and then stimulated with anti-IgM antibody and H2O2, protein lysates were prepared, quantified and used for Western blotting. A commercially available antibody that detects Src phosphorylated at Tyr 416 (Cell Signalling) and may cross-react with other Src family members such as Lyn, Fyn, Lck, Yes and Hck when phosphorylated at equivalent sites was used for Western blot analysis. The molecular weights of SFK family members are quite similar (in the 55-60 kDa range) and different family members cannot be resolved by the conditions used for the Western blot. […] The procedure can be similarly adapted for flow cytometric analysis as with the PLC-γ2 assay in Example 82. Ramos cells were incubated with Compound 1 for 2 hrs in RPMI media with 5% FBS prior to stimulation stimulated with H2O2/anti-IgM/F(Ab) for 10 minutes. Cells were evaluated by FACS analysis using anti-pSRC antibody and FITC-conjugated goat anti-rabbit secondary antibody following overnight storage at 4° C. in BD perm/wash buffer.
Ramos cells were prepared for flow cytometry analysis as described in example 82, and stained with a commercially available antibody that detects SFK phosphorylated at Tyr 416, followed by Alexa Fluor 488 conjugated secondary antibody. […] Thus amino naphthyridinones are useful in the inhibition of the phosphorylation of SFKs.

Src [3] = target: T1, Src (Homo sapiens (Human), UniProt P12931); details: read-out: Src IC50
T1 sequence (P12931 whole entry, looked up): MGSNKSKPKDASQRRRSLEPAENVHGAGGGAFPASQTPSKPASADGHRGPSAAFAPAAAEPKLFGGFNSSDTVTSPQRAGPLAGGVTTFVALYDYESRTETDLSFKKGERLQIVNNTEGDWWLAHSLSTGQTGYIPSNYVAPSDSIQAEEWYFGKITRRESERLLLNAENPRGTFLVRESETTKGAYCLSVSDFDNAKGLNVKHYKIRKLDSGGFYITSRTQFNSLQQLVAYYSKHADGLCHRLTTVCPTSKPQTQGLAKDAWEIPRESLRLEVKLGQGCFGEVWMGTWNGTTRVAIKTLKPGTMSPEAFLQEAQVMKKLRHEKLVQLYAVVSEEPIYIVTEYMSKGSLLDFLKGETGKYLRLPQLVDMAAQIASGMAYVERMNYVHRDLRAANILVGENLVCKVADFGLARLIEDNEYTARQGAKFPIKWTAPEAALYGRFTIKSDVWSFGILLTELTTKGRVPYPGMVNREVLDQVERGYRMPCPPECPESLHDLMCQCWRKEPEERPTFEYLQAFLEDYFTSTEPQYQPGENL

Lyn [4] = target: T2, Lyn (Homo sapiens (Human), UniProt P07948); experiment: biochemical
T2 sequence (P07948 whole entry): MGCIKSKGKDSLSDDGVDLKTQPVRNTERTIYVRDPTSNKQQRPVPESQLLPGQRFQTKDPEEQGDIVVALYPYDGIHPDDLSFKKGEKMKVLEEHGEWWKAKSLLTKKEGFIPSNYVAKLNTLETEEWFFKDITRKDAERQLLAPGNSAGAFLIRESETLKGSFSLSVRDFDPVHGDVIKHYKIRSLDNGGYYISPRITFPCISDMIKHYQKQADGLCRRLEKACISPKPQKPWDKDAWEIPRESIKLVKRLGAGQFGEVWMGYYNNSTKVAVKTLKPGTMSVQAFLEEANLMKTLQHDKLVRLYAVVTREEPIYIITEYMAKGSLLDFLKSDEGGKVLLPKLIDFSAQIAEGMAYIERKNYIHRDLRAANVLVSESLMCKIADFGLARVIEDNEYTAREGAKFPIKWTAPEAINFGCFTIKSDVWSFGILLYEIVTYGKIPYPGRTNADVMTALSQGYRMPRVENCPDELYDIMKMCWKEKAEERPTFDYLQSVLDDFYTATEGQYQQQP

BTK = BTK (Homo sapiens (Human), UniProt Q06187); details: read-out: BTK IC50
Chain of BTK (Q06187 whole entry): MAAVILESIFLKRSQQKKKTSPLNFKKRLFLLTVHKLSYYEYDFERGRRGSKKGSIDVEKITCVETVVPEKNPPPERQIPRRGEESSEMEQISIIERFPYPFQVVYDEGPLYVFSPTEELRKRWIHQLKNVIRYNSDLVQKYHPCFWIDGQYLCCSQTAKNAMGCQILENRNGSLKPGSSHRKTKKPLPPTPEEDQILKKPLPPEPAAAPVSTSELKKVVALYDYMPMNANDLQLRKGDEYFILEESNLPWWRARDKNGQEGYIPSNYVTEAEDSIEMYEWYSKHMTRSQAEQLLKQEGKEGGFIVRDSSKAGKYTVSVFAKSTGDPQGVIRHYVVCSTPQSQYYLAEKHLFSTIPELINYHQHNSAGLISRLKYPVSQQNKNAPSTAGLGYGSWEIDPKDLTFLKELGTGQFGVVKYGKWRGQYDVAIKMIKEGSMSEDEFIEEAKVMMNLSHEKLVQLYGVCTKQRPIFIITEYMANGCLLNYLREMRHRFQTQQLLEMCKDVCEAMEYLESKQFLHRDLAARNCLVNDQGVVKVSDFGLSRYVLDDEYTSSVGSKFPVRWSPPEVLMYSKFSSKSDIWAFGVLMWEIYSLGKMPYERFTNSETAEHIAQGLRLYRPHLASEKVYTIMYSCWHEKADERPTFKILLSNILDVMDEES

Lyn [5] = target: T2, Lyn; details: read-out: Lyn IC50
DoHH2 cells = details: treated 24 hours
Src [6] = target: T1, Src; experiment: biochemical

Row | pIC50 (Src [3]) | pIC50 (Lyn [4]; Lyn IC50) | pIC50 (BTK) | pEC50 (Ramos; 48 hrs) | pIC50 (Lyn [5]) | pIC50 (Src [6]) | pIC50 (Lyn [4]) | SMILES | pEC50 (DoHH2; 48 hrs, read-out: DoHH2 EC50) | pEC50 (Ramos; 48 h) | inhibition at 0.3 µM [1] [%] | inhibition at 0.3 µM [2] [%] | pEC50 (DoHH2; Table 4, DoHH2 cells, read-out: EC50 (Proliferation)) | Effect on Cell Cycle (DoHH2 cells)
1 | > 7.00 | 6.00 to 7.00 | > 7.00 |  |  |  |  | CCN(CC)CCOc1ccc(Nc2cc3c(cn2)cc(-c2ccccc2C(F)(F)F)c(=O)n3CC)nc1 [Compound 107, 7-((5-(2-(diethylamino)ethoxy)pyridin-2-yl)amino)-1-ethyl-3-(2-(trifluoromethyl)phenyl)-1,6-naphthyridin-2(1H)-one] | > 6.00 | < 5.00 | 48 | 28 |  | 
2 | > 7.00 |  | > 7.00 | 5.00 to 6.00 | > 7.00 |  |  | CCN(CC)CCOc1ccc(Nc2cc3c(cn2)cc(-c2c(O)cccc2Cl)c(=O)n3CC)nc1 [Compound 109, 3-(2-chloro-6-hydroxyphenyl)-7-((5-(2-(diethylamino)ethoxy)pyridin-2-yl)amino)-1-ethyl-1,6-naphthyridin-2(1H)-one] | > 6.00 |  | 91 | 65 |  | 
3 |  |  |  |  |  | 6.00 to 7.00 | 6.00 to 7.00 | CCN(CC)CCOc1ccc(Nc2cc3c(cn2)cc(-c2ccccc2)c(=O)n3C2CCCC2)nc1 [Compound 23, 1-cyclopentyl-7-(5-(2-(diethylamino)ethoxy)pyridin-2-ylamino)-3-phenyl-1,6-naphthyridin-2(1H)-one] | > 6.00 | 5.00 to 6.00 | 32 | 5 | > 6.00 | G1 Arrest
4 | > 7.00 |  | > 7.00 | 5.00 to 6.00 | > 7.00 |  |  | CCN(CC)CCOc1ccc(Nc2cc3c(cn2)cc(-c2c(F)cccc2F)c(=O)n3CC)nc1 [Compound 92, 7-((5-(2-(diethylamino)ethoxy)pyridin-2-yl)amino)-3-(2,6-difluorophenyl)-1-ethyl-1,6-naphthyridin-2(1H)-one] | > 6.00 |  | 88 | 56 |  | 
5 | > 7.00 |  | > 7.00 | 5.00 to 6.00 | > 7.00 |  |  | CCn1c(=O)c(-c2c(F)cccc2F)cc2cnc(Nc3ccc(OCCN4CCOCC4)cn3)cc21 [Compound 94, 3-(2,6-difluorophenyl)-1-ethyl-7-((5-(2-morpholinoethoxy)pyridin-2-yl)amino)-1,6-naphthyridin-2(1H)-one] | > 6.00 |  | 59 | 9 |  | 

Row | SMILES | pIC50 (Src [3]) | pIC50 (Lyn [4]; Lyn IC50) | pIC50 (BTK) | pEC50 (Ramos; 48 hrs) | pIC50 (Lyn [5]) | pIC50 (Src [6]) | pIC50 (Lyn [4]) | pEC50 (DoHH2; 48 hrs, read-out: DoHH2 EC50) | pEC50 (Ramos; 48 h) | inhibition at 0.3 µM [1] [%] | inhibition at 0.3 µM [2] [%] | pEC50 (DoHH2; Table 4, DoHH2 cells, read-out: EC50 (Proliferation)) | Effect on Cell Cycle (DoHH2 cells)
6 | CN1CCC(N(C)c2ccc(Nc3cc4c(cn3)cc(-c3c(F)cccc3F)c(=O)n4C3CC3)nc2)CC1 [Compound 136, 1-cyclopropyl-3-(2,6-difluorophenyl)-7-((5-(methyl(1-methylpiperidin-4-yl)amino)pyridin-2-yl)amino)-1,6-naphthyridin-2(1H)-one] | > 7.00 |  | > 7.00 |  | > 7.00 |  |  | > 6.00 | 5.00 to 6.00 | 85 | 55 |  | 
7 | CCn1c(=O)c(-c2c(F)cccc2Cl)cc2cnc(Nc3ccc(N(C)C4CCN(C)CC4)cn3)cc21 [Compound 115, 3-(2-chloro-6-fluorophenyl)-1-ethyl-7-((5-(methyl(1-methylpiperidin-4-yl)amino)pyridin-2-yl)amino)-1,6-naphthyridin-2(1H)-one] | > 7.00 |  | > 7.00 |  | > 7.00 |  |  | > 6.00 | 5.00 to 6.00 | 97 | 80 |  | 
